Laboratory results reported in patent EP0443573A2, “HIV protease inhibitors containing derived amino acids” (BIO-MEGA/BOEHRINGER INGELHEIM RESEARCH INC., priority 1990, dated 1991).

Key:
HIV protease = target: T1, HIV protease (Human immunodeficiency virus type 1 group M subtype B, UniProt P04585); test: Recombinant HIV Protease HPLC Assay; format: biochemical; details: recombinant HIV protease expressed in E. coli; substrate VSFNFPQITL-NH₂; pH 5.5; 37° for 30 min; HPLC readout
T1 construct: HIV protease was expressed in E. coli; made in house; host or cells: E. coli
Source text: The procedure is based on the capacity of the test compound to inhibit enzymatic cleavage by HIV protease of a decapeptide (the substrate) having an amino acid sequence which includes a known HIV protease cleavage site of a HIV polyprotein; see H.G. Krausslich et al., Proc. Natl. Acad. Sci. USA, 86, 807 (1989). Details of this assay together with the results obtained for exemplified compounds of formula 1 are described in the examples hereinafter.
Recombinant HIV Protease HPLC Assay: Enzyme: HIV protease was expressed in E. coli [construct pBRT1 prt⁺, see W.G. Farmerie et al., Science, 236,305 (1987)], according to the following protocol: Unless stated otherwise, all solutions are aqueous solutions.
E. coli cells containing the pBRT1 prt⁺ plasmid were used to inoculate a seed culture media composed of Luria-Bertani Broth containing 100µg/mL of ampicillin. Flasks were incubated at 37° under agitation for 17 h. Production flasks containing sterile M9 broth, supplemented with 100µg/ml of ampicillin, were inoculated at a level of 1% (v/v) using the seed culture described above. Total volume in each production flask was 500 mL in a 2 L Erlenmeyer flask. Flasks were incubated at 37° under agitation until a cell concentration corresponding to an optical density (λ = […]) of 0.6 was reached (no dilution). This time span was routinely 3-4 h. Flasks were then supplemented with 5mM isopropylthiogalactoside (IPTG, Research Organics, Cleveland, Ohio, USA) and incubation was continued until the cell concentration reached an optical density of 0.2 at 16-fold dilution. Flasks were then supplemented with 1mM phenylmethylsulfonyl fluoride (PMSF) and rapidly chilled to 4°. The bacterial cells were recovered by centrifugation at 4°. The wet pellet was stored at -70°.
All steps below were performed at 4° unless otherwise indicated. Thawed cells were mixed with buffer A [50 mM […] HCl(Tris-HCl, pH 7.4); 0.6 mM ethylenediaminetetraacetic acid (EDTA); 0.375 M NaCl, 0.2% Nonidet P-40 ^R (BDH Chemicals Ltd., Poole, UK); 1mM PMSF], at a ratio of one part cells to nine parts buffer A. Diatomaceous earth (Celite 545 ^R , John Manville, Lompoc, CA, USA) was added at a ratio of two parts to one part of wet cell weight. The resulting slurry was homogenized at high speed (ca. 20,000 rpm) on a Waring ^R industrial blender for 8 x 15 sec. pulses. Cell debris/Celite ^R was collected by centrifugation and the resulting pellet was extracted with 4.5 parts of buffer A to one part wet solids using the homogenization procedure described above. Supernatants from both homogenization steps were combined and soluble protein was precipitated by the addition of solid (NH₄)₂SO₄ to yield a final concentration of 75% saturation. This mixture was agitated for 60 min and the precipitate was recovered by centrifugation. The resulting pellet was suspended in buffer B [50mM Tris-HCl, pH 8; 30 mM NaCl; 1 mM DL-dithiothreitol(DTT); 1 mM EDTA; 1 mM PMSF; 10% glycerol], and dialyzed for 18h against the same buffer.
An aliquot of the dialyzed extract containing 150 mg of the protein was loaded onto a Sephadex A25 ^R anion exchange column. (Pharmacia, Uppsala, Sweden) with bed dimensions of 70 cm length and 2.5 cm diameter. The sample was eluted isocratically with buffer B at a linear flow rate of 10 cm/h. Fractions containing HIV protease activity (see below for assay description) were combined, and soluble protein was precipitated by the addition of saturated aqueous (NH₄)₂SO₄ to yield a total (NH₄)₂SO₄ concentration of 85% saturation. Precipitated protein was removed by centrifugation and the resulting pellet was dissolved in buffer C[50 mM 2-(4-morpholino)ethanesulfonic acid (MES), pH 5.5; 150 mM NaCl; 1 mM DTT; 1 mM EDTA; 10% glycerol]. This preparation was dialyzed for 18h against buffer C, and then frozen at -70°. All crude extracts were purified by chromatography in aliquots containing 150 mg of protein in the same manner as described above. […]

HIV = test: Inhibition of syncytia formation by HIV in HTLV-I transformed C8166 cells (adapted plaque assay); format: cell-based, H9/HTLV-IIIB; details: Human immunodeficiency virus 1, IIIB, C8166, 72 h, read-out: inhibition of syncytia formation
Source text: Typical of such procedures are those described by S. Harada and N. Yamamoto, Jpn. J. Cancer Res. (Gann), 76, 432 (1985), and S. Harada et al., Science 229, 563 (1985). An assay based on the latter procedures is described in the examples hereinafter.
The following protocol, used for screening antiviral effects of the compounds of formula 1, is adapted from a plaque assay utilizing HTLV-I transformed cells which was developed by Harada et al., supra. HTLV-I transformed cells are used in these assays because of the rapidity with which HIV will replicate in these cells. • 1. The test compound is dissolved in dimethylsulfoxide to a concentration of 5 mg/mL. The resultant solution can be stored at 4° until used. • 2. The resultant solution is diluted in RPMI 1640 (Gibco Laboratories, St. Lawrence, MA, USA) to four times (4x) the final concentration which is to be tested. Once diluted in RPMI 1640, the solution is used in the cell culture assay within 4 h. • 3. The 4x solution (50µL) is added to triplicate wells of a 96 well flat bottomed microtiter plate. RPMI […] also is added to control wells. • 4. […] Infectious titer of virus stocks are as previously determined by end point dilution on C8166 cells. […] Plates are then removed and centers of syncytia are counted in each well by low power phase contrast light microscopy. […] Percent inhibition of syncytia formation is calculated by the formula: [formula]

| Structure (SMILES) | IC50 (HIV protease) [nM] | inhibition at 20 µg/mL (HIV) [%] |
| --- | --- | --- |
| CCC(CC)C(=O)NC(C(=O)NC(CC1CCCCC1)C(O)CC(=O)NC(CC1CC1)C(=O)NCCCc1ccccc1)C(C)C (stereo not shown) [(C2H5)2CHC(O)-Val-ACHPA-Cpa-NHCH2CH2CH2Ph] | 135 |  |
| CCC(=O)NC(C(=O)NC(CC1CCCCC1)C(O)CC(=O)NC(CCC(=O)O)C(=O)NCCc1ccccc1)C(C)(C)C (stereo not shown) [CH3CH2C(O)-Tbg-ACHPA-Glu-NHCH2CH2Ph, CH₃CH₂C(O)-Tbg-ACHPA-Glu-NHCH₂CH₂Ph] | 15 | 49 |
| CC(C)(C)C(NC(=O)C(O)CO)C(=O)NC(CC1CCCCC1)C(O)CC(=O)NC(CCC(=O)O)C(=O)NCCc1ccccc1 [(S)-HOCH₂CH(OH)C(O)-Tbg-ACHPA-Glu-NHCH₂CH₂Ph] | 9.2 |  |
| CC(C)(C)CC(=O)NC(C(=O)NC(CC1CCCCC1)C(O)CC(=O)NC(CCC(=O)O)C(=O)NCCc1ccccc1)C(C)(C)C (stereo not shown) [(CH3)3CCH2C(O)-Tbg-ACHPA-Glu-NHCH2CH2Ph, (CH₃)₃CCH₂C(O)-Tbg-ACHPA-Glu-NHCH₂CH₂Ph] | 110 |  |
| COC(=O)CCC(NC(=O)CC(O)C(CC1CCCCC1)NC(=O)C(NC(C)=O)C(C)(C)C)C(=O)NCCc1ccccc1 (stereo not shown) [Ac-Tbg-ACHPA-Glu(OMe)-NHCH2CH2Ph, Ac-Tbg-ACHPA-Glu(OMe)-NHCH₂CH₂Ph] | 150 |  |
| COC(=O)CCC(NC(=O)CC(O)C(CC1CCCCC1)NC(=O)C(NC(=O)C(O)CO)C(C)(C)C)C(=O)NCCc1ccccc1 [(S)-HOCH₂CH(OH)C(O)-Tbg-ACHPA-Glu(OMe)NHCH₂CH₂Ph] | 200 | 100 |
| CC(=O)NC(C(=O)NC(CC1CCCCC1)C(O)CC(=O)NC(CCC(=O)O)C(=O)NCCc1ccccc1)C(C)(C)C (stereo not shown) [Ac-Tbg-ACHPA-Glu-NHCH2CH2Ph, Ac-Tbg-ACHPA-Glu-NHCH₂CH₂Ph] | 12 |  |
| CC(=O)NC(C(=O)NC(CC1CCCCC1)C(O)CC(=O)NC(CCC(=O)O)C(=O)NCCc1ccccc1)C(C)C (stereo not shown) [Ac-Val-ACHPA-Glu-NHCH2CH2Ph, Ac-Val-ACHPA-Glu-NHCH₂CH₂Ph] | 31 |  |
| CC(=O)NC(C(=O)NC(CNC(CC(C)C)C(=O)NC(CCC(=O)O)C(=O)NCCc1ccccc1)Cc1ccccc1)C(C)C (stereo not drawn) [Ac-Val-Pheψ[CH2NH]Leu-Glu-NHCH2CH2Ph, Ac-Val-PheΨ[CH₂NH]Leu-Glu-NHCH₂CH₂Ph] | 16 |  |
| COC(=O)CCC(NC(=O)CC(O)C(CC1CCCCC1)NC(=O)C(NC(C)=O)C(C)C)C(=O)NCCc1ccccc1 (stereo not shown) [Ac-Val-ACHPA-Glu(OMe)-NHCH2CH2Ph, Ac-Val-ACHPA-Glu(OMe)NHCH₂CH₂Ph] | 480 |  |
| CC(=O)NC(C(=O)NC(CC1CCCCC1)C(O)CC(=O)NC(CC1CC1)C(=O)NCCc1ccccc1)C(C)(C)C (stereo not shown) [Ac-Tbg-ACHPA-Cpa-NHCH2CH2Ph, Ac-Tbg-ACHPA-Cpa-NHCH₂CH₂Ph] | 93 |  |
